Entries after “also recorded” stand apart in the source; their conditions may differ.
Experiments:
[1] = tested on: RAS^WT colorectal cancer patient derived xenograft (PDX) models; test: Example 2: antitumor activity in RAS^WT colorectal cancer PDX models; type: in vivo, mice
Method: Tumor volumes (TV) were measured twice a week, and % tumor volume change (TVC) from baseline was calculated as follows: (TVi/TV0−1)×100. Tumor stasis defined as TVC between 0 and 20%, and tumor regression as TVC less than 0% at last measurement. Results are presented as mean±SEM.

[2] = cited from earlier work
[3] = tested on: advanced/metastatic solid tumors; conditions: single agent; cited from earlier work
[4] = biological target: T1, CYP1A2 (Homo sapiens, UniProt P05177); conditions: human liver microsomes; cited from earlier work
T1 construct: was investigated using human liver microsomes; from tissue; host or cells: human liver microsomes
T1 sequence (P05177 1-516): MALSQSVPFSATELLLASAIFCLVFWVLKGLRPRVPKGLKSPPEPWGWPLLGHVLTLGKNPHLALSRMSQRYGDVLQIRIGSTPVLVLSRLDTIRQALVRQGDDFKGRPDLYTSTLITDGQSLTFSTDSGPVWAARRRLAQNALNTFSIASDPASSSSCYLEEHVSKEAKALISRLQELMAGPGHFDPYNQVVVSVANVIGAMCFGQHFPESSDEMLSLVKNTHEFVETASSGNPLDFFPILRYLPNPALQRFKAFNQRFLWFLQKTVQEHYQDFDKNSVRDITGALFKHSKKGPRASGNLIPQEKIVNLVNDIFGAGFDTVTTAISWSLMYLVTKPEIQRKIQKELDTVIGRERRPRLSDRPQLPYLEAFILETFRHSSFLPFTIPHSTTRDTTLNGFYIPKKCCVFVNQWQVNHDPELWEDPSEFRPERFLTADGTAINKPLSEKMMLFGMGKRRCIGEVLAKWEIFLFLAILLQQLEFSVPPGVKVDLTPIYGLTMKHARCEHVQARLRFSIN

## CN1CCN(c2ccc(OC(F)(F)F)c(Nc3ncc4c(n3)-c3c(c(C(N)=O)nn3CCO)CC4)c2)CC1 [Onvansertib, 1-(2-hydroxyethyl)-8-{[5-(4-methylpiperazin-1-yl)-2-(trifluoromethoxy)phenyl]amino}-4,5-dihydro-1H-pyrazolo[4,3-h]quinazoline-3-carboxamide]
[1]; 7 PDXs sensitive to cetuximab
  models with tumor stasis or regression: five
[1]; PDX models sensitive to cetuximab, 71%
  models with potent antitumor activity: 5/7
[1]; all 20 models
  models with tumor regression (TVC less than 0%): 11 models
  models with tumor stasis (TVC between 0 and 20%): 3 models
[2]; doses of 6, 12, and 24 mg/m^2/day, oral, 5 consecutive days every 3 weeks
  DLTs: No DLTs
[2]; phase I, patients with advanced/metastatic solid tumors
  primary dose-limiting toxicities / primary toxicities: neutropenia and thrombocytopenia; also recorded: thrombocytopenia and neutropenia
[2]; reversible toxicities
  recovery time of hematologic toxicities: ≤ 3 weeks
[3]
  best observed treatment response: stable disease
[4]
  inhibitory effect against CYP1A2: No significant inhibitory effects

Source: patent publication US20260069596A1 (Cardiff Oncology, Inc., priority 2024, published 2026)
